Tests used:
[1] = system: Chaetomium globosum; assay: Poison Plate Assay (fungi, Glucose Agar); format: cell-based; conditions: Chaetomium globosum ATCC6205, ppm total active ingredient, 27° C., growth evaluated after two weeks, label = % (I-e) + % nano-silver
Description: (§1) Test models: • Fungi: to each well of a 24-well microtiter plate, 1000 μl of Glucose Agar (GA: 10 g glucose, 1.5 g K2HPO4, 2 g KH2PO4, 1 g (NH4)2SO4, 0.5 g MgSO4 and 12.5 g agar in 1 liter deionised water) containing the appropriate combination of the test compounds in one of the concentrations of a dose series is added. The nutrient medium is inoculated with the test fungi by adding a spore/mycelium suspension (10 μl) or a small piece of agar from the margin of an actively growing colony and incubated under dark at 27° C. with 70% relative humidity. The growth of the fungi is evaluated after two weeks. • Glucose agar is used here instead of PDA (Potato Dextrose Agar), as an alternative, poorer medium for the fungi, in order to increase the chances of detecting activity in compounds whose mode of action might be circumvented by fungi on a […]). Moreover, a richer organic medium has more potential to complex and inactivate antibacterial silver ions (Lasater et al. 1999, Weissbuch et al. 2002). • Bacteria : to each well of a 24-well microtiter plate, 1000 μL Tryptose Agar (TA, 20 g bacto tryptose agar, 5 g sodium chloride, 1 g bacto dextrose and 15 g agar in l liter deionised water), containing the test compounds in one of the concentrations of a dose series is added. […] Growth is evaluated after five days. […]

[2] = system: Ulocladium atrum; assay: Poison Plate Assay (fungi, Glucose Agar); format: cell-based; conditions: Ulocladium atrum IMI214699a, ppm total active ingredient, 27° C., growth evaluated after two weeks, label = % (I-e) + % nano-silver
Description: as §1

With Cc1cc(CC(C)CC(C)(C)C)n(O)c(=O)c1.NCCO (centres unmarked) [100 + 0, piroctone olamine] the “MIC-values (minimum inhibitory concentration) in ppm” value [1] was 3.16 ppm and the “MIC-values (minimum inhibitory concentration) in ppm” value [2] was 3.16 ppm.

— patent publication US20110008463A1, “COMBINATIONS OF HYDROXYPYRION COMPOUNDS AND SILVER COMPOUNDS” (priority 2008, published 2011)
